From patent EP4444311B1, “GI[…] TREATMENT OF CHRONIC HEPATITIS B VIRUS INFECTIONS” (priority 2021, dated 2023)
Like-named read-outs stand apart in the source and are kept apart here.

Assays:
[1] = test system: HBs protein (S-HBs, M-HBs, and L-HBs) mRNA; assay: Knockdown of HBs protein mRNA expression levels in HepG2.2.15 cells (RT-qPCR relative to GAPDH mRNA); type: cell-based, hepatitis B virus; settings: for IC50: Hepatitis B virus, read-out: Estimated IC50 values (knockdown of HBs protein mRNA expression levels); for knockdown effects on HBs protein mRNA expression levels: day 6 post-first exposure (data not shown); for knockdown HBs protein mRNA expression levels (in words): library screen, 50 µM, day 4 post-first exposure, HepG2.2.15 cells
Experimental: HepG2.2.15 cells (seeded at a density of 4 x 10^4 cells per well in 96-well plates) were cultured at 37 °C in humidified air with 5 % CO2. Once cells had reached confluence, initial screening of ginsenoside library compounds was performed with each compound added individually to culture media at a final concentration of 50 µM. Cells were then further incubated at 37 °C under 5 % CO2. At day 4 post-first exposure, cells were then collected to determine the percentage knockdowns of HBs protein mRNA expression levels relative to GAPDH mRNA levels (as described below).
Thereafter, more extensive studies were performed with HepG2.2.15 cells as follows. After cells were grown to confluence, as above, culture media were replaced with media containing one of the selected ginsenosides as appropriate, or else with LMV or ginsenoside/LMV combinations at the indicated concentrations. Cells were then further incubated at 37 °C under 5 % CO2. At the indicated times (at day 2, 4, or 6 post-first exposure; or at just day 5 post-first exposure), cell and culture media samples respectively were collected for subsequent detection of HBs protein mRNA expression levels or secreted HBV DNA and HBsAg levels (as described below).
RNA extraction from cells was performed using the QIAamp® Viral RNA Mini kit (Qiagen, Germany), according to manufacturer's instructions. RNA integrity was evaluated by electrophoresis on 1% agarose gels, and quantified using a ND1000 spectrophotometer (NanoDrop Technologies, Germany). Following this, extracted RNA (1 µg) was used to synthesize cDNA using a SensiFAST™ cDNA Synthesis Kit (Meridian Bioscience Inc, Cincinnati, OH, USA) according to manufacturer's instructions. RT-qPCR reactions were then performed with qPCR 2xSYBR master mix (Top-Bio, Czech Republic) on a LightCycler® real-time PCR system (Roche, Switzerland), using the indicated primers specific for amplification of HBs protein (S-HBs, M-HBs, and L-HBs) and GAPDH control mRNAs (Table 1). PCR amplification was performed on multiple RT-qPCR reaction mixtures (each 20 µl) located in individual wells of a 96-well optical-grade PCR plate, sealed with optical sealing tape (Bio-Rad Laboratories, Hercules, CA, USA). Each RT-qPCR reaction mixture comprised synthesized cDNA (2 µl) (diluted 1:1), appropriate primers (each 0.4 µl, […]), 2xSYBR green PCR master mix (10 µl) and ddH2O (7.2 µl). PCR amplification involved one cycle at 94 °C (5 min), followed by 40 cycles of denaturation at 94 °C (20 s), then annealing and extension at 57 °C for 20 s, plus 72 °C for 30 s. Finally, melting curve analyses were performed by slowly heating the PCR reaction mixtures from 65 to 95 °C, in increments of 0.5 °C every 5 s, with simultaneous measurements of the SYBR green signal intensities. Percentage knockdowns of HBs protein mRNA expression levels were determined relative to GAPDH mRNA levels using calculated 2^-ΔΔct values [Livak, K.J; Schmittgen, T.D. Analysis of relative gene expression data using real-time quantitative PCR and the 2(-Delta Delta C(T)) Method. Methods 2001, 25, 402-8]. Three biological replicates were performed for each data point where fold change (FC) ≥ 2 is considered statistically significant. Table 1. Primers for RT-qPCR detection of specific mRNAs

HepG2.2.15 cells = assay: Cytotoxicity assay (CCK-8 cell viability); type: cell-based, human; settings: 3.12-100 µM; for HepG2.2.15 cytotoxicity: day 2 and 4 post-first exposure; for cell viabilities: day 6 post-first exposure, unrelated to ginsenoside doses, non-specific decline
Experimental: HepG2.2.15 cells (seeded at a density of 4 x 10^4 cells per well in 96-well plates) were cultured at 37 °C in humidified air with 5 % CO2. After cells reached 70-80 % confluence, initial screening of ginsenoside library compounds was performed with each compound added to cultured HepG2.2.15 cell at a final concentration of 50 µM. Cells were then further incubated at 37 °C under 5 % CO2. At day 4 post-first exposure of cells to each ginsenoside library compound, percentage cell viabilities were determined by CCK-8 (Dojindo Laboratories, Kumamoto, Japan) used according to manufacturer's instructions. Thereafter, cytotoxicity studies were performed with appropriate quantities of selected ginsenosides (Rg6, Rh4, or Rb3) added to cultured HepG2.2.15 cells at final concentrations of 100, 50, 25, 12.5, 6.25 or 3.12 µM. Cells were then incubated at 37 °C under 5 % CO2. At day 2, 4, and 6 post-first exposure of cells to the selected ginsenosides, percentage cell viabilities were determined by CCK-8 assay as above. Final cytotoxicity studies were performed with combinations of ginsenoside compounds (Rg6, Rh4 or Rb3) (at 80, 40, 20, 10, 5 or 2.5 µM) and LMV (at 0.08, 0.04, 0.02, 0.01, 0.005 or 0.0025 µM) respectively added to cultured HepG2.2.15 cells. Once more, cells were further incubated at 37 °C under 5 % CO2. At day 5 post-first exposure of cells to ginsenoside/LMV combinations, percentage cell viabilities were determined by CCK-8 assay once again.

With `CC(C)=CCC[C@](C)(O[C@@H]1O[C@H](CO[C@@H]2OC[C@@H](O)[C@H](O)[C@H]2O)[C@@H](O)[C@H](O)[C@H]1O)[C@H]1CC[C@]2(C)[C@@H]1[C@H](O)C[C@@H]1[C@@]3(C)CC[C@H](O[C@@H]4O[C@H](CO)[C@@H](O)[C@H](O)[C@H]4O[C@@H]4O[C@H](CO)[C@@H](O)[C@H](O)[C@H]4O)C(C)(C)[C@@H]3CC[C@]12C` [Rb3] the IC50 ([1]; HepG2.2.15, 48 h) was 4.1 µM, the IC50 ([1]; HepG2.2.15, 96 h) was 3.2 µM and the “knockdown effects on HBs protein mRNA expression levels” value [1] was “wear off completely”. For the same compound, the “knockdown HBs protein mRNA expression levels (in words)” value [1] was “especially effective”, the HepG2.2.15 cytotoxicity (HepG2.2.15 cells) was “no significant HepG2.2.15 cytotoxicity” and the cell viabilities (HepG2.2.15 cells) was “Slightly reduced cell viabilities”.
For `C=C(CCC=C(C)C)[C@H]1CC[C@]2(C)[C@@H]1[C@H](O)C[C@@H]1[C@@]3(C)CC[C@H](O)C(C)(C)[C@@H]3[C@@H](O[C@@H]3O[C@H](CO)[C@@H](O)[C@H](O)[C@H]3O[C@@H]3O[C@@H](C)[C@H](O)[C@@H](O)[C@H]3O)C[C@]12C` [Rg6], the IC50 ([1]; HepG2.2.15, 48 h) was 5.1 µM, the IC50 ([1]; HepG2.2.15, 96 h) was 3.2 µM and the “knockdown effects on HBs protein mRNA expression levels” value [1] was “wear off completely”. The “knockdown HBs protein mRNA expression levels (in words)” value [1] was “especially effective”, the HepG2.2.15 cytotoxicity (HepG2.2.15 cells) was “no significant HepG2.2.15 cytotoxicity” and the cell viabilities (HepG2.2.15 cells) was “Slightly reduced cell viabilities”.
